Where a name gives a salt, the structure may show the parent alone. Read-outs that look alike come from different tables or passages of the source.
How the values were obtained:
[1] = cited from earlier work
DU145 [2] = test: Synergy assay, 6 × 6 checkerboard, growth inhibition by resazurin, CI by CompuSyn; format: cell-based; details: Homo sapiens, DU-145, 72 h, three days
Method: Each plate contained 6 × 6 dose matrix blocks with several epidrug concentrations below and above each respective EC50 value. […] The combination index (CI) was calculated using CompuSyn software, where <1 indicates synergism, =1 is an additive effect and >1 indicates antagonism.

PC-3 [3] = test: Cell viability assay (resazurin), dose-response; format: cell-based; details: Homo sapiens, 72 h; PC-3, day 3, resazurin
Method: (§1) Briefly, PCa cell lines were seeded into 96-well plates at 5000 cells per well and incubated overnight at 37 °C in 5% CO2. Subsequently, cells were treated with a range of concentrations of each epidrug and their respective vehicle (dH2O for hydralazine; dimethyl sulfoxide (DMSO, Sigma-Aldrich, St. Louis, MO, USA) for panobinostat and culture medium for valproic acid) during three consecutive days, exchanging the medium every 24 h. Three experimental replicates of three biological replicates were used for each assay.
(§2) The cell viability was evaluated using resazurin (Canvax Biotech, Córdoba, Spain) at 0 h and 72 h of treatment. The culture medium was removed, and cells were incubated for three hours in the dark at 37 °C and 5% CO2 with 100 μL of 1:10 resazurin solution in culture medium. […] The OD values were corrected using resazurin solution as blank.

22Rv1 = test: Cell viability assay (resazurin), dose-response; format: cell-based; details: Homo sapiens, 22Rv1, 72 h, 22Rv1, day 3, resazurin
Method: as §1, §2

LNCaP [4] = test: Cell viability assay (resazurin), dose-response; format: cell-based; details: Homo sapiens, 72 h, day 3, resazurin
Method: as §1, §2

DU145 [5] = test: Cell viability assay (resazurin), dose-response; format: cell-based; details: Homo sapiens, DU-145, 72 h, DU145, day 3, resazurin
Method: as §1, §2

[6] = Clinical bioavailability and corresponding concentration at maximum clinical dose; format: in vivo; details: 200 mg/day
DU145 [7] = test: Migration transwell assay; format: cell-based, Human; details: 24 h, Hydra 50 µM, Pano 5 nM, no significant differences
Method: (§3) Cell invasion and migration were determined using Falcon® Permeable Support for 24-well Plate with 8.0 µm Transparent PET Membrane (Corning, New York, NY, USA) and Nunc® Cell Culture Inserts in 24-well Nunclon Delta surface plate (Sigma-Aldrich, St. Louis, MO, USA), respectively. Briefly, cells were harvested after treatment and were added to the upper chamber in serum-free medium, according to its optimized density (2.5 × 10^4 cells for every cell line except from LNCaP and 22Rv1 with 5 × 10^4 cells). Media containing 10% FBS was added to the lower chamber. After 24 h incubation at 37 °C and 5% CO2, the cells remaining on the upper side of the membrane were removed with cotton swabs, and those on the lower surface of the membrane were fixed in methanol (Supelco, Sigma-Aldrich, St. Louis, MO, USA), washed in PBS 1 × and stained with Crystal Violet (Active motif, Carlsbad, CA, USA). All the inserts were photographed with stereomicroscope Olympus S2X16 using a digital camera Olympus SC180 (scale bar 1 mm) at 12.5 × magnification. Five fields within each insert were selected and photographed at 115 × and further counted using ImageJ software Cell Counter Plugin. The mean of the counted cells was calculated, divided by the area of the microscope viewing field and then multiplied by the entire area of the insert. Three biological replicates were used for each condition.

PC-3 [8] = details: 24 h after seeding, Hydra 100 µM, Pano 10 nM, differences not statistically significant
Method: as §3

DU145 [9] = test: Invasion transwell assay; format: cell-based, Human; details: 24 h after seeding, Hydra 50 µM, Pano 5 nM, differences not statistically significant
Method: as §3

DU145 [10] = details: 3 days exposure, 7 additional days, Hydra 50 µM, Pano 5 nM
Method: (§4) PCa cells were seeded in 6-well culture plates at specific concentrations for each cell line, as detailed in Table S1. After epidrug exposure, cells were incubated at 37 °C and 5% CO2 for 7 days and 10 days (LNCaP). Next, colonies were fixed in methanol (Supelco, Sigma-Aldrich, St. Louis, MO, USA), washed in PBS 1 × and stained with Hemacolor Solution II and III (Sigma-Aldrich, St. Louis, MO, USA). Three biological and three experimental replicates were used for each condition.

DU145 [11] = test: Proliferation assay (BrdU ELISA); format: cell-based, Human; details: day 3, Hydra 50 µM, Pano 5 nM, alone or combined, compared with the vehicle
Method: The cell proliferation ELISA BrdU (5-bromo-2′ deoxyuridine) assay (Roche Applied Sciences, Germany) was performed at 72 h of treatment. Cells were plated into 96-well plates at a density of 5000 cells per well, and at 0 h and 72 h of treatment, cells were incubated with 10 µM BrdU labeling solution for 8 h. After removing the culture medium, the cells were fixed with FixDenat solution for 30 min at room temperature. Then, the anti-BrdU-POD antibody (1:100) was added. After three washes with PBS 1 ×, the immune complexes were detected by the subsequent substrate reaction. The reaction product was quantified in a microplate reader (FLUOstar Omega, BMG Labtech, Ortenberg, Germany) at a wavelength of 450 nm with background subtraction at 690 nm. All ODs were normalized for the 0 h time point as well as to the vehicle. Three biological and three experimental replicates were used for each condition.

DU145 [12] = test: Alkaline comet assay; format: cell-based, Human
Method: After epidrug exposure, 30,000 cells were harvested by trypsinization, washed in PBS, re-suspended in 0.5% low-melting point agarose (w/v) and immediately placed on a microscope slide previously covered with 1% normal-melting point agarose (w/v). Then, the cells were immersed in lysis solution (2.5 M NaCl, 100 mM Na2EDTA, 10 mM Tris Base and 1% Triton X-100, pH 10) at 4 °C during 2 h in the dark. Afterwards, the slides were incubated in an alkaline electrophoresis buffer (300 mM NaOH, 1 mM Na2EDTA, pH 13) for 40 min at 4 °C to allow DNA unwinding. Single cell gel electrophoresis was performed on a horizontal electrophoresis platform for 30 min at 21 V, 300 mA, 4 °C. Next, slides were incubated in a neutralization buffer (0.4 M Tris-Base, pH 7.5) for 10 min, followed by staining with DAPI. Comet analysis was done using OpenComet v.1.3.1. Global DNA damage (SSB and DSB) evaluation was determined by measuring tail moment (tail % DNA × means of head × tail distance) and representative pictures taken with Olympus IX51 microscope at 200 × magnification (scale bar 50 μm). A sampling of at least 50 comets was included in the analysis. Three biological replicates were used for each condition.

WPMY-1 = test: Cell viability assay (resazurin), dose-response; format: cell-based; details: Homo sapiens, WPMY-1, 72 h, WPMY-1, day 3, resazurin
Method: as §1, §2

PC-3 [13] = test: Colony formation assay; format: cell-based, Human; details: 3 days exposure, 7 additional days, Hydra 100 µM, Pano 10 nM
Method: as §4

LNCaP [14] = test: Colony formation assay; format: cell-based, Human; details: 3 days exposure, 10 additional days, Hydra 100 µM, Pano 5 nM
RWPE-1 [15] = test: Alkaline comet assay; format: cell-based, Human; details: Pano 10 nM
Source text: Three biological replicates were used for each condition.

RWPE-1 [16] = test: Cell viability assay (resazurin), dose-response; format: cell-based; details: Homo sapiens, RWPE-1, 72 h, RWPE-1, day 3, resazurin
Method: as §1, with “assay. The cell viability was evaluated using resazurin ([…] Biotech, Córdoba, Spain) at 0 h and 72 h of treatment. The culture medium was removed, and cells were incubated for three hours in the dark at 37 °C and 5% CO2 with 100 μL of 1:10 resazurin solution in culture medium. […] The OD values were corrected using resazurin solution as blank.” for “assay.”

Row | EC50 (PC-3 [3]) [µM] | EC50 (22Rv1) [µM] | EC50 (LNCaP [4]) [µM] | EC50 (DU145 [5]) [µM] | SMILES | cell invasion (transwell) (DU145 [9]) | cell proliferation (BrdU incorporation) (DU145 [11]) | EC50 (WPMY-1) [µM] | also measured
1 | 0.0289 | 0.014 | 0.0247 | 0.00697 | Cc1[nH]c2ccccc2c1CCNCc1ccc(/C=C/C(=O)NO)cc1 [Panobinostat] | but not panobinostat, also reduced invasion | but not panobinostat, led to considerable proliferation inhibition | 0.0241 | bioavailability [1]: 21.4%; inhibition at 0.005 µM (DU145 [2]; panobinostat alone at the selected concentration (5 nM, Table 1)): 48.9%; colony formation (PC-3 [13]): showed a higher impact; colony formation (LNCaP [14]): showed a higher impact; tail moment (comet assay) (RWPE-1 [15]): significantly increased; DNA damage (tail moment, comet assay) (DU145 [12]; DU145, Hydra 50 µM, Pano 5 nM, alone or combined): increased DNA damage
2 | 8540 | 2000 to 3000 | 2000 to 3000 | 2000 to 3000 | CCCC(CCC)C(=O)O [Valproic acid] | – | – | 4460 | EC50 (RWPE-1 [16]): 8970 µM

Row | SMILES | EC50 (PC-3 [3]) [µM] | EC50 (22Rv1) [µM] | EC50 (LNCaP [4]) [µM] | EC50 (DU145 [5]) [µM] | cell invasion (transwell) (DU145 [9]) | cell proliferation (BrdU incorporation) (DU145 [11]) | EC50 (WPMY-1) [µM] | also measured
3 | NNc1nncc2ccccc12 [Hydralazine, Hydralazine hydrochloride] | 143 | 73.1 | 87.5 | 50 | reduced invasion | considerable proliferation inhibition | – | bioavailability ([1]; fast acetylators): 16%; bioavailability ([1]; slow acetylators): 35%; inhibition at 50 µM (DU145 [2]; hydralazine alone at the selected concentration (50 µM, Table 1)): 42.8%; concentration corresponding to the maximum clinically recommended dose ([6]; bioavailability 16%, fast acetylators): ~0.2 M; concentration corresponding to the maximum clinically recommended dose ([6]; bioavailability 35%, slow acetylators): ~0.44 M; cell migration (transwell) (DU145 [7]): reduced cell migration; cell invasion (transwell) (PC-3 [8]): two times higher than that of panobinostat; colony formation (clonogenic capacity) (DU145 [10]): almost no colonies were apparent; DNA damage (tail moment, comet assay) (DU145 [12]): increased DNA damage

From paper PMC8308508, “Hydralazine and Panobinostat Attenuate Malignant Properties of Prostate Cancer Cell Lines” (Pharmaceuticals, 2021)
